According to patent US10377741B2, “Substituted heteroaryl aldehyde compounds and methods for their use in increasing tissue oxygenation” (Global Blood Therapeutics, Inc., priority 2011, dated 2019):

Molecular target: T1, purified Hemoglobin S (HbS) (Homo sapiens, UniProt P68871+P69905, E7V)
T1 construct: HbS was purified by a modified procedure; from tissue; host or cells: blood of homozygous sickle cell patients (CHORI); for the polymerization assay purified by the CRO VIRUSYS
Experiment: Modulation of hemoglobin oxygen affinity: oxygen equilibrium curves (HEMOX) in purified HbS
Format: biochemical, human (homozygous sickle cell patients)
Conditions: 25 μM purified HbS, 45 min at 37° C.
Experimental: Oxygen equilibrium curves (OEC) in purified Hemoglobin S (HbS) were measured by the change in p50, the partial pressure of oxygen at which the heme binding sites in the HbS sample are 50% saturated with oxygen. HbS was purified by a modified procedure (Antonini and Brunori, 1971; Heomoglobin and Myoglobin in their Reactions with Ligands; North Holland Publishing Company; Amsterdam, London) from blood obtained from homozygous sickle cell patients though the Hemoglobinopathy Center at Children's Hospital Oakland Research Institute (CHORI) with Institutional Review Board approval. Oxygen equilibrium curves were carried out with a HEMOX analyzer, (TCS Scientific, New Hope, Pa.). Five hundred μL of 250 μM purified HbS were diluted into 4.5 mL of HEMOX buffer (30 mM TES, 130 mM NaCl, 5 mM KCl, pH=7.4) resulting in a final hemoglobin concentration of 25 μM. The compounds were added at the final desired concentrations. The mixture was incubated for 45 min at 37° C. and then transferred to the Hemox sample chamber. The samples were saturated with oxygen by flushing with compressed air for 10 minutes. The samples were then flushed with pure nitrogen and the absorbance of deoxy-Hb was recorded as a function of the solution pO2. The oxygen equilibrium data was then fit to the Hill Model to obtain values for p50. The deoxygenation curves for both HbS alone (control) and HbS in the presence of compound were collected with the TCS software. The p50 for purified Hbs was typically 13.8±1.6. Delta p50 values were obtained from the p50 value for control minus the p50 value for HbS treated with compound divided by the p50 value for the control.
The compounds of Table 1 that were where tested in the assay above were all found to have positive delta p50 values. Delta p50% is calculated from [[p50(HbS) −p50(HbS treated with compound)]/p50(HbS)]×100. Table 2 below lists the delta p50% values where + indicates a delta p50% of between 0 and 29, ++ indicates a delta p50% of between 30 and 50, and +++ indicates a delta p50% of 50 or greater. Unless noted otherwise, the compounds in Table 2 were tested at 30 μM.

| SMILES | delta p50% (compound at 30 μM) | delta p50% (compound at 100 μM) |
| --- | --- | --- |
| O=Cc1cnccc1OCc1cccnc1 [Compound 1, 4-(pyridin-3-ylmethoxy)nicotinaldehyde] | + (a delta p50% of between 0 and 29) | – |
| O=Cc1cccnc1OCc1cccn2ccnc12 [Compound 3, 2-(imidazo[1,2-a]pyridin-8-ylmethoxy)nicotinaldehyde] | + (a delta p50% of between 0 and 29) | – |
| O=Cc1ncccc1OCc1cccn2ccnc12 [Compound 4, 3-(imidazo[1,2-a]pyridin-8-ylmethoxy)picolinaldehyde] | + (a delta p50% of between 0 and 29) | – |
| O=Cc1ccncc1OCc1cccn2ccnc12 [Compound 6, 3-(imidazo[1,2-a]pyridin-8-ylmethoxy)isonicotinaldehyde] | + (a delta p50% of between 0 and 29) | – |
| O=Cc1ccncc1OCc1cccn2cncc12 [Compound 7, 3-(imidazo[1,5-a]pyridin-8-ylmethoxy)isonicotinaldehyde] | + (a delta p50% of between 0 and 29) | – |
| O=Cc1cccnc1CCc1cccn2ccnc12 [Compound 12, 2-(2-(imidazo[1,2-a]pyridin-8-yl)ethyl)nicotinaldehyde] | – | + (a delta p50% of between 0 and 29) |
| COc1cc(C=O)c(OCc2cccnc2C)cn1 [Compound 38, 2-methoxy-5-((2-methylpyridin-3-yl)methoxy)isonicotinaldehyde] | + (a delta p50% of between 0 and 29) | – |
| COc1cc(C=O)c(OCc2cnccc2C)cn1 [Compound 39, 2-methoxy-5-((4-methylpyridin-3-yl)methoxy)isonicotinaldehyde] | + (a delta p50% of between 0 and 29) | – |
| COc1cc(C=O)c(OCc2ccc(C(F)(F)F)nc2)cn1 [Compound 40, 2-methoxy-5-((6-(trifluoromethyl)pyridin-3-yl)methoxy)isonicotinaldehyde] | – | + (a delta p50% of between 0 and 29) |
| COc1cc(C=O)c(OCc2ccc(C)nc2)cn1 [Compound 41, 2-methoxy-5-((6-methylpyridin-3-yl)methoxy)isonicotinaldehyde] | + (a delta p50% of between 0 and 29) | – |
| COc1cc(C=O)c(OCc2cccnc2)cn1 [Compound 42, 2-methoxy-5-(pyridin-3-ylmethoxy)isonicotinaldehyde] | + (a delta p50% of between 0 and 29) | – |
| COc1cc(C=O)c(OCc2ccncc2C)cn1 [Compound 47, 2-methoxy-5-((3-methylpyridin-4-yl)methoxy)isonicotinaldehyde] | + (a delta p50% of between 0 and 29) | – |
| COc1cc(C=O)c(OCc2ccncc2Br)cn1 [Compound 48, 5-((3-bromopyridin-4-yl)methoxy)-2-methoxyisonicotinaldehyde] | – | ++ (a delta p50% of between 30 and 50) |
| Cc1ccc(OCc2cccn3ccnc23)c(C=O)n1 [Compound 49, 3-(imidazo[1,2-a]pyridin-8-ylmethoxy)-6-methylpicolinaldehyde] | ++ (a delta p50% of between 30 and 50) | – |
| COc1cc(C(O)OC)c(OCc2cccc3nccn23)cn1 (stereo not shown) [Compound 50, (5-(imidazo[1,2-a]pyridin-5-ylmethoxy)-2-methoxypyridin-4-yl)(methoxy)methanol] | + (a delta p50% of between 0 and 29) | – |
| O=Cc1ccncc1NC(=O)c1cccn2ccnc12 [Compound 51, N-(4-formylpyridin-3-yl)imidazo[1,2-a]pyridine-8-carboxamide] | + (a delta p50% of between 0 and 29) | – |
| COc1cc(C=O)c(OCc2cn3cc(C(F)(F)F)ccc3n2)cn1 [Compound 52, 2-methoxy-5-((6-(trifluoromethyl)imidazo[1,2-a]pyridin-2-yl)methoxy)isonicotinaldehyde] | – | + (a delta p50% of between 0 and 29) |

| SMILES | delta p50% (compound at 30 μM) | delta p50% (compound at 100 μM) |
| --- | --- | --- |
| COc1cc(C=O)c(OCc2ccn(C)c(=O)c2)cn1 [Compound 54, 2-methoxy-5-((1-methyl-2-oxo-1,2-dihydropyridin-4-yl)methoxy)isonicotinaldehyde] | – | ++ (a delta p50% of between 30 and 50) |
| COc1cc(C=O)c(OCc2nc3ccccn3c2Br)cn1 [Compound 55, 5-((3-bromoimidazo[1,2-a]pyridin-2-yl)methoxy)-2-methoxyisonicotinaldehyde] | – | + (a delta p50% of between 0 and 29) |
| COc1cc(C=O)c(OCc2cn3cc(Br)ccc3n2)cn1 [Compound 56, 5-((6-bromoimidazo[1,2-a]pyridin-2-yl)methoxy)-2-methoxyisonicotinaldehyde] | – | + (a delta p50% of between 0 and 29) |
| COc1cc(C=O)c(OCc2cn3cccc(Br)c3n2)cn1 [Compound 57, 5-((8-bromoimidazo[1,2-a]pyridin-2-yl)methoxy)-2-methoxyisonicotinaldehyde] | – | ++ (a delta p50% of between 30 and 50) |
| COc1cc(C=O)c(OCc2nc3ccccn3c2-c2ccn[nH]2)cn1 [Compound 59, 5-((3-(1H-pyrazol-5-yl)imidazo[1,2-a]pyridin-2-yl)methoxy)-2-methoxyisonicotinaldehyde] | + (a delta p50% of between 0 and 29) | – |
| COc1cc(C=O)c(OCc2cn3cccc(-c4ccnn4C)c3n2)cn1 [Compound 61, 2-methoxy-5-((8-(1-methyl-1H-pyrazol-5-yl)imidazo[1,2-a]pyridin-2-yl)methoxy)isonicotinaldehyde] | + (a delta p50% of between 0 and 29) | – |
| COc1cc(C=O)c(OCc2ccc(C#N)nc2)cn1 [Compound 62, 5-((4-formyl-6-methoxypyridin-3-yloxy)methyl)picolinonitrile] | + (a delta p50% of between 0 and 29) | – |
| COc1cc(C=O)c(OCc2cccnc2C#N)cn1 [Compound 64, 3-((4-formyl-6-methoxypyridin-3-yloxy)methyl)picolinonitrile] | + (a delta p50% of between 0 and 29) | – |
| COc1cc(C2OCCO2)c(OCc2cn3cccc(C(N)=O)c3n2)cn1 [Compound 68, 2-((4-(1,3-dioxolan-2-yl)-6-methoxypyridin-3-yloxy)methyl)imidazo[1,2-a]pyridine-8-carboxamide] | + (a delta p50% of between 0 and 29) | – |
| CNC(=O)c1cccn2cc(COc3cnc(OC)cc3C3OCCO3)nc12 [Compound 69, 2-((4-(1,3-dioxolan-2-yl)-6-methoxypyridin-3-yloxy)methyl)-N-methylimidazo[1,2-a]pyridine-8-carboxamide] | + (a delta p50% of between 0 and 29) | – |
| COc1cc(C=O)c(OCc2cncc(-c3ccn[nH]3)c2)cn1 [Compound 70, 5-((5-(1H-pyrazol-5-yl)pyridin-3-yl)methoxy)-2-methoxyisonicotinaldehyde] | + (a delta p50% of between 0 and 29) | – |
| COc1cc(C=O)c(OCc2cnccc2-c2ccn[nH]2)cn1 [Compound 71, 5-((4-(1H-pyrazol-5-yl)pyridin-3-yl)methoxy)-2-methoxyisonicotinaldehyde] | + (a delta p50% of between 0 and 29) | – |
| CNC(=O)c1cccn2cc(COc3cnc(OC)cc3C(O)O)nc12 [Compound 72, 2-((4-(dihydroxymethyl)-6-methoxypyridin-3-yloxy)methyl)-N-methylimidazo[1,2-a]pyridine-8-carboxamide] | + (a delta p50% of between 0 and 29) | – |
| COc1cc(C(O)O)c(OCc2cn3cccc(C(N)=O)c3n2)cn1 [Compound 73, 2-((4-(dihydroxymethyl)-6-methoxypyridin-3-yloxy)methyl)imidazo[1,2-a]pyridine-8-carboxamide] | + (a delta p50% of between 0 and 29) | – |
| COc1cc(C=O)c(OCc2cncc(-c3ccn(C)n3)c2)cn1 [Compound 75, 2-methoxy-5-((5-(1-methyl-1H-pyrazol-3-yl)pyridin-3-yl)methoxy)isonicotinaldehyde] | + (a delta p50% of between 0 and 29) | – |
| COc1cc(C=O)c(OCc2cncc(-c3cn[nH]c3)c2)cn1 [Compound 76, 5-((5-(1H-pyrazol-4-yl)pyridin-3-yl)methoxy)-2-methoxyisonicotinaldehyde] | + (a delta p50% of between 0 and 29) | – |
| COc1cc(C=O)c(OCc2cncc(-c3cnn(C)c3)c2)cn1 [Compound 77, 2-methoxy-5-((5-(1-methyl-1H-pyrazol-4-yl)pyridin-3-yl)methoxy)isonicotinaldehyde] | + (a delta p50% of between 0 and 29) | – |
